Laboratory results reported in paper PMC7733455, “A novel multistage antiplasmodial inhibitor targeting Plasmodium falciparum histone deacetylase 1” (Cell Discovery, 2020).
Where two headings read alike, the source gives them in different places. Non-standard residues stand in square brackets, D forms with d. Residues, ends and D or L forms follow the SMILES beside them. ξ: configuration not given here. Aoe(9ξ) = N[C@@H](CCCCCC(=O)C1CO1)C(=O)O; dPip = O=C(O)[C@H]1CCCCN1

Key:
[1] = In vitro cytotoxicity analysis (CellTiter-Glo), HepG2; details: human
Experimental: (§1) In all, 1% DMSO was used as a negative control. The inhibition of each drug was normalized to that of the DMSO control. EC50 was calculated by GraphPad Prism. Three independent assays with two technical replicates each time were conducted in this experiment.

HepG2 cells = assay: as above; details: for Selectivity index (range over HepG2 and 293T): HepG2 and 293T vs 3D7
Experimental: as §1

[2] = In vitro cytotoxicity analysis (CellTiter-Glo), 293T; details: human
Experimental: as §1

293T cells = assay: as above
Experimental: as §1

P. falciparum 3D7 = assay: 3-day SYBR Green I growth inhibition assay (GIA), strain 3D7; assay type: cell-based, Plasmodium falciparum; details: Plasmodium falciparum, 3D7, 72 h, read-out: Antiplasmodial activity EC50, 3D7
Experimental: (§2) A 3-day SYBR Green I inhibition EC50 assay was performed as described previously. Briefly, highly synchronized ring-stage parasites by 5% sorbitol (1% parasitemia and 2% hematocrit) were incubated in a 96-well plate with compounds in a total volume of 200 μL. […] The parasites were cultured for 72 h before SYBR Green I staining as described above. The EC50 was calculated by GraphPad Prism. DHA was used as a positive control, and the final concentration of DMSO was 1%.

P. falciparum Dd2 = assay: 3-day SYBR Green I GIA, multidrug-resistant strain Dd2; assay type: cell-based, Plasmodium falciparum; details: Plasmodium falciparum, 72 h; 3-day SYBR Green I GIA, multidrug-resistant strain Dd2; read-out: Antiplasmodial activity EC50, Dd2
Experimental: as §2

[3] = test system: parasite histone H3 acetylation; assay: Western blot of histone H3 acetylation in parasites; assay type: cell-based, Plasmodium falciparum; details: 4 h treatment of asynchronous 3D7; quisinostat/JX21108 5 and 20 nM, SAHA 500 nM
Experimental: Then the parasite samples were harvested and treated with 0.15% saponin to remove the RBC proteins and sonicated in 1% NP40 lysis buffer. After centrifugation at 12,000× g for 15 min, the supernatant was resuspended in a routine SDS loading buffer. Parasite proteins were separated by 10% SDS-PAGE and transferred onto PVDF membranes (Millipore). […] A2348) followed by a secondary antibody conjugated with HRP (Jackson Immuno Research Laboratories). The chemiluminescent HRP substrate Immobilon Western Kit (Millipore) was used for signal detection.

[4] = 293T cells, Cytotoxicity EC50, 293T, 72 h, CellTiter-Glo
[5] = 3-day SYBR Green I GIA, drug-sensitive strain 3D7

| SMILES | EC50 at 72 h ([1]; HepG2 cells) | Selectivity index for HepG2 (EC50 HepG2/EC50 3D7) (HepG2 cells) | EC50 at 72 h [2, 4] | Selectivity index for 293T (EC50 293T/EC50 3D7) (293T cells) | EC50 (P. falciparum 3D7; [5]) | EC50 (P. falciparum Dd2) | Selectivity index (range over HepG2 and 293T) (HepG2 cells) | pan-acetylation levels of parasite histone H3 [3] | EC50 at 72 h [1] | EC50 at 72 h [2] | EC50 (P. falciparum 3D7) |
| --- | --- | --- | --- | --- | --- | --- | --- | --- | --- | --- | --- |
| COc1ccc(-c2nc(N3CCOCC3)c3sc(CN(C)c4ncc(C(=O)NO)cn4)cc3n2)cn1 [Fimepinostat, reference compound] | 70 nM | 1 | 69 nM | 1 | 63 nM | – | – | – | – | – | – |
| Cl.Cn1cc(CN2CC3CN(c4ncc(C(=O)NO)cn4)CC3C2)c2ccccc21 (stereo not shown) [JX21002] | 128 ± 2 nM | 29 | 307 ± 4 nM | 70 | 4.4 ± 0.2 nM | 7 ± 0.2 nM | 24–70 | – | – | – | – |
| CN(c1ncc(C(=O)NO)cn1)C1CCN(Cc2cn(C)c3ccccc23)CC1.Cl [JX21006] | 37 ± 10 nM | 1 | 118 ± 24 nM | 4 | 26.5 ± 1.2 nM | 32 ± 2.5 nM | – | – | – | – | – |
| Cn1cc(CN2CCC3(CCN(c4ncc(C(=O)NO)cn4)C3)C2)c2ccccc21 (stereo not shown) [JX21011] | 113 ± 1 nM | 38 | 72 ± 10 nM | 24 | 3 ± 0.7 nM | 3.2 ± 0.1 nM | 24–70 | – | – | – | – |
| Cl.Cn1cc(CN2CC3(CCN(c4ncc(C(=O)NO)cn4)CC3)C2)c2ccccc21 [JX21014] | 348 ± 24 nM | 21 | 1130 ± 26 nM | 67 | 16.9 ± 0.8 nM | 10.7 ± 0.2 nM | – | – | – | – | – |
| Cl.Cn1cc(CN2CCC3(CCCN(c4ncc(C(=O)NO)cn4)C3)CC2)c2ccccc21 [JX21017] | 2350 ± 93 nM | 98 | 4497 ± 33 nM | 156 | 28.9 ± 1.2 nM | 32.4 ± 1.8 nM | – | – | – | – | – |
| Cl.O=C(NO)c1cnc(N2CCC3(CCN(Cc4ccc5ccccc5c4)C3)C2)nc1 (stereo not shown) [JX21101] | 651 ± 63 nM | 186 | 1160 ± 193 nM | 331 | 3.5 ± 0.2 nM | 2.18 ± 0.02 nM | – | – | – | – | – |
| COc1ccc2c(c1)c(CN1CCC3(CCN(c4ncc(C(=O)NO)cn4)C3)C1)cn2C.Cl (stereo not shown) [JX21104] | 534 ± 45 nM | 176 | 659 ± 128 nM | 217 | 1.6 ± 0.3 nM | 3 ± 0.1 nM | – | – | – | – | – |
| Cl.O=C(NO)c1cnc(N2CCC3(CCN(Cc4ccc5c(c4)CCO5)C3)C2)nc1 (stereo not shown) [JX21109] | 1310 ± 73 nM | 133 | 2560 ± 113 nM | 260 | 9.8 ± 0.3 nM | 7 ± 0.3 nM | – | – | – | – | – |
| Cl.O=C(NO)c1cnc(N2CCC3(CCN(Cc4csc5ccccc45)C3)C2)nc1 (stereo not shown) [JX21115] | 864 ± 76 nM | 179 | 482 ± 42 nM | 100 | 4.8 ± 0.1 nM | 7.2 ± 0.2 nM | – | – | – | – | – |
| Cl.O=C(NO)c1cnc(N2CCC3(CCN(Cc4cc5ccccc5o4)C3)C2)nc1 (stereo not shown) [JX21117] | 1640 ± 25 nM | 255 | 1610 ± 334 nM | 252 | 6.4 ± 0.3 nM | 7.61 ± 0.05 nM | – | – | – | – | – |
| Cl.O=C(NO)c1cnc(N2CCC3(CCN(Cc4cc5ccccc5s4)C3)C2)nc1 (stereo not shown) [JX21118] | 1670 ± 230 nM | 298 | 1640 ± 122 nM | 292 | 5.61 ± 0.04 nM | 6.4 ± 1.3 nM | – | – | – | – | – |
| Cl.Cn1c(CN2CCC3(CCN(c4ncc(C(=O)NO)cn4)C3)C2)cc2ccccc21 (stereo not shown) [JX21123] | 1250 ± 62 nM | 202 | 1200 ± 156 nM | 193 | 6.2 ± 1.3 nM | 7.2 ± 0.3 nM | – | – | – | – | – |
| Cl.Cn1nc(CN2CCC3(CCN(c4ncc(C(=O)NO)cn4)C3)C2)c2ccccc21 (stereo not shown) [JX21124] | 1130 ± 168 nM | 195 | 1330 ± 29 nM | 229 | 5.8 ± 0.9 nM | 4.3 ± 0.5 nM | – | – | – | – | – |
| Cl.Cn1cc(CN2CCC3(CCN(c4ncc(C(=O)NO)cn4)C3)C2)c2ccncc21 (stereo not shown) [JX21129] | 1530 ± 69 nM | 192 | 1120 ± 98 nM | 141 | 8 ± 0.5 nM | 7.8 ± 1.3 nM | – | – | – | – | – |
| Cl.Cn1cc(CN2CCC3(CCN(c4ncc(C(=O)NO)cn4)C3)C2)c2cccnc21 (stereo not shown) [JX21130] | 1180 ± 84 nM | 140 | 4640 ± 375 nM | 552 | 8.4 ± 0.4 nM | 7.5 ± 2 nM | – | – | – | – | – |
| Cl.O=C(NO)c1cnc(N2CCC3(CCN(Cc4c5ccccc5cc5ccccc45)C3)C2)nc1 (stereo not shown) [JX21138] | 1310 ± 14 nM | 45 | 1990 ± 559 nM | 69 | 28.8 ± 18.5 nM | 21.2 ± 0.9 nM | – | – | – | – | – |
| Cl.O=C(NO)c1cnc(N2CCC3(CCN(Cc4ccc5c(c4)OCO5)C3)C2)nc1 (stereo not shown) [JX21140] | 493 ± 149 nM | 47 | 2450 ± 301 nM | 235 | 10.5 ± 0.1 nM | 5.4 ± 0.2 nM | – | – | – | – | – |
| Cl.Cn1cc(CN2CCC3(CCN(c4ncc(C(=O)NO)cn4)C3)C2)c2cc(Br)ccc21 (stereo not shown) [JX21141] | 294 ± 45 nM | 88 | 633 ± 209 nM | 189 | 3.3 ± 0.5 nM | 1.736 ± 0.005 nM | – | – | – | – | – |
| COc1ccc2c(CN3CCC4(CCN(c5ncc(C(=O)NO)cn5)C4)C3)cn(C)c2c1.Cl (stereo not shown) [JX21142] | 975 ± 1 nM | 72 | 1230 ± 102 nM | 90 | 13.6 ± 4.2 nM | 3.4 ± 2.2 nM | – | – | – | – | – |
| O=C(CCCCCCC(=O)Nc1ccccc1)NO [SAHA] | – | – | – | – | – | – | – | greatly increased the pan-acetylation levels of parasite histone H3 | – | – | – |
| O=C(CCCCC[C@@H]1NC(=O)[C@H]2CCCCN2C(=O)[C@H](Cc2ccccc2)NC(=O)[C@H](Cc2ccccc2)NC1=O)C1CO1 (stereo partly shown) [Trapoxin A, reference compound] (cyclo(FF[dPip][Aoe(9ξ)])) | – | 77 | – | 9 | – | – | – | – | 6320 nM | 724 nM | 82 nM |
